Earlier results, collected in patent publication US20210338678A1, “BIOACTIVE VITAMIN COMBINATIONS” (BioVit, Inc., priority 2020, published 2021).

What was measured:
[1] = patients with type 2 diabetes, 16 weeks of treatment
[2] = test system: CD8+T lymphocytes and natural killer (NK) cell activity; settings: vitamin B12-deficient patients
[3] = test system: H1N1 influenza vaccine response; settings: mothers supplemented during pregnancy and postpartum
[4] = test system: acute and chronic pain and inflammation; settings: mice

## CN(C)C(=N)N=C(N)N [metformin, Metformin]
[1]
  homocysteine: modest increase in homocysteine
  levels of folate and vitamin B12: reduces levels of folate and vitamin B12

## C/C1=C2/[N-][C@H]([C@H](CC(N)=O)[C@@]2(C)CCC(=O)NC[C@@H](C)OP(=O)([O-])O[C@H]2[C@@H](O)[C@@H](n3cnc4cc(C)c(C)cc43)O[C@@H]2CO)[C@]2(C)N=C(/C(C)=C3N=C(/C=C4N=C1[C@@H](CCC(N)=O)C\4(C)C)[C@@H](CCC(N)=O)[C@]\3(C)CC(N)=O)[C@@H](CCC(N)=O)[C@]2(C)CC(N)=O.[CH3-].[Co+3] [methylcobalamin, Methylcobalamin]
[2]
  antibody response of the immune system: improves the antibody response of the immune system

## Vitamin B12
[3]
  H1N1 influenza vaccine response: improved H1N1 influenza vaccine response in mothers

## cyanocobalamin
[4]
  control of acute and chronic neuropathic pain: controlling acute and chronic neuropathic pain
